Measured values from ChEMBL document CHEMBL1201862, “PubChem BioAssay data set” (2004).
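Exposure lasted 48 hours, with cells grown in 96-well plates and compounds tested at five concentrations. Abbreviation: GI50, concentration required for 50% inhibition of growth.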 Activity calls are given as the source filed them. Rule as the data show it: active = GI50 up to about 1.1 µM and inactive = higher.

How the values were obtained:
Assay in all cases: DTP human tumour cell line panel, 48 h
786-0 = system: 786-0
A498 = system: A498
A549 = system: A549
ACHN = system: ACHN
CAKI-1 = system: CAKI-1
CCRF-CEM = system: CCRF-CEM
COLO 205 = system: COLO 205
DLD-1 = system: DLD-1
DMS-114 = system: DMS-114
DMS-273 = system: DMS-273
EKVX = system: EKVX
HCC 2998 = system: HCC 2998
HCT-116 = system: HCT-116
HCT-15 = system: HCT-15
HL-60 = system: HL-60
HOP-18 = system: HOP-18
HOP-62 = system: HOP-62
HOP-92 = system: HOP-92
HT-29 = system: HT-29
IGROV-1 = system: IGROV-1
K562 = system: K562
KM-20L2 = system: KM-20L2
KM12 = system: KM12
LOX IMVI = system: LOX IMVI
LXFL 529 = system: LXFL 529
M14 = system: M14
MOLT-4 = system: MOLT-4
Malme-3M = system: Malme-3M
NCI-H226 = system: NCI-H226
NCI-H23 = system: NCI-H23
NCI-H460 = system: NCI-H460
NCI-H522 = system: NCI-H522
OVCAR-3 = system: OVCAR-3
OVCAR-4 = system: OVCAR-4
OVCAR-5 = system: OVCAR-5
OVCAR-8 = system: OVCAR-8
RPMI-8226 = system: RPMI-8226
RXF 393 = system: RXF 393
SF-268 = system: SF-268
SF-295 = system: SF-295
SF-539 = system: SF-539
SK-MEL-28 = system: SK-MEL-28
SK-MEL-2 = system: SK-MEL-2
SK-MEL-5 = system: SK-MEL-5
SK-OV-3 = system: SK-OV-3
SN12C = system: SN12C
SNB-19 = system: SNB-19
SNB-75 = system: SNB-75
SNB-78 = system: SNB-78
SR = system: SR
SW-620 = system: SW-620
TK-10 = system: TK-10
U-251 = system: U-251
UACC-257 = system: UACC-257
UACC-62 = system: UACC-62
UO-31 = system: UO-31
XF498 = system: XF498
M19-MEL = system: M19-MEL
RXF 631 = system: RXF 631

O=C1OC(c2cccc(C(F)(F)F)c2)(c2cccc(C(F)(F)F)c2)c2ccc3ccccc3c21
GI50 (786-0): > 10 µM (inactive) | GI50 (A498): > 10 µM (inactive) | GI50 (A549): > 10 µM (inactive) | GI50 (ACHN): 3.64 µM (inactive) | GI50 (CAKI-1): 26.7 µM (inactive) | GI50 (CCRF-CEM): 7.85 µM (inactive) | GI50 (COLO 205): > 10 µM (inactive) | GI50 (DLD-1): > 10 µM (inactive) | GI50 (DMS-114): 6.18 µM (inactive) | GI50 (DMS-273): > 10 µM (inactive) | GI50 (EKVX): > 10 µM (inactive) | GI50 (HCC 2998): > 10 µM (inactive) | GI50 (HCT-116): 8.45 µM (inactive) | GI50 (HCT-15): 9.25 µM | GI50 (HL-60): 3.56 µM (inactive) | GI50 (HOP-18): > 10 µM (inactive) | GI50 (HOP-62): > 10 µM (inactive) | GI50 (HOP-92): 28.8 µM (inactive) | GI50 (HT-29): > 10 µM (inactive) | GI50 (IGROV-1): > 10 µM (inactive) | GI50 (K562): 8.04 µM (inactive) | GI50 (KM-20L2): 7.67 µM (inactive) | GI50 (KM12): 79.1 µM (inactive) | GI50 (LOX IMVI): > 10 µM (inactive) | GI50 (LXFL 529): 8.24 µM (inactive) | GI50 (M14): > 10 µM (inactive) | GI50 (MOLT-4): 4.66 µM (inactive) | GI50 (Malme-3M): 4.79 µM (inactive) | GI50 (NCI-H226): 85.5 µM (inactive) | GI50 (NCI-H23): 7.85 µM (inactive) | GI50 (NCI-H460): > 10 µM (inactive) | GI50 (NCI-H522): > 10 µM (inactive) | GI50 (OVCAR-3): 4.23 µM (inactive) | GI50 (OVCAR-4): > 10 µM (inactive) | GI50 (OVCAR-5): > 10 µM (inactive) | GI50 (OVCAR-8): > 10 µM (inactive) | GI50 (RPMI-8226): 4.24 µM (inactive) | GI50 (RXF 393): 5.65 µM (inactive) | GI50 (SF-268): 9.59 µM (inactive) | GI50 (SF-295): 15.2 µM (inactive) | GI50 (SF-539): > 100 µM (inactive) | GI50 (SK-MEL-28): > 10 µM (inactive) | GI50 (SK-MEL-2): > 10 µM (inactive) | GI50 (SK-MEL-5): 4.59 µM (inactive) | GI50 (SK-OV-3): > 10 µM (inactive) | GI50 (SN12C): > 10 µM (inactive) | GI50 (SNB-19): 11.2 µM (inactive) | GI50 (SNB-75): > 10 µM (inactive) | GI50 (SNB-78): > 10 µM (inactive) | GI50 (SR): > 10 µM (inactive) | GI50 (SW-620): > 10 µM (inactive) | GI50 (TK-10): > 10 µM (inactive) | GI50 (U-251): 8.39 µM (inactive) | GI50 (UACC-257): 13.1 µM (inactive) | GI50 (UACC-62): > 10 µM (inactive) | GI50 (UO-31): > 10 µM (inactive) | GI50 (XF498): > 100 µM (inactive)

FC(F)(F)C1(Cl)C(Cl)(c2ccccc2)C1(Cl)c1ccccc1 (stereo unspecified)
GI50 (786-0): 15.8 µM (inactive) | GI50 (A549): 14.7 µM (inactive) | GI50 (ACHN): 16.1 µM (inactive) | GI50 (CAKI-1): 13 µM (inactive) | GI50 (CCRF-CEM): 14.9 µM (inactive) | GI50 (COLO 205): 19.2 µM (inactive) | GI50 (DLD-1): 15.4 µM (inactive) | GI50 (DMS-114): 15.6 µM (inactive) | GI50 (DMS-273): 14.9 µM (inactive) | GI50 (EKVX): 16.3 µM (inactive) | GI50 (HCC 2998): 16.9 µM (inactive) | GI50 (HCT-116): 11.9 µM (inactive) | GI50 (HCT-15): 13.7 µM | GI50 (HL-60): 17.7 µM (inactive) | GI50 (HOP-18): 11.1 µM (inactive) | GI50 (HOP-62): 16.3 µM (inactive) | GI50 (HOP-92): 12.3 µM (inactive) | GI50 (HT-29): 14.8 µM (inactive) | GI50 (IGROV-1): 12.9 µM (inactive) | GI50 (K562): 33.7 µM (inactive) | GI50 (KM-20L2): 13.9 µM (inactive) | GI50 (KM12): 15.6 µM (inactive) | GI50 (LOX IMVI): 13.3 µM (inactive) | GI50 (LXFL 529): 16.3 µM (inactive) | GI50 (M14): 16.4 µM (inactive) | GI50 (M19-MEL): 15.6 µM (inactive) | GI50 (MOLT-4): 10.3 µM (inactive) | GI50 (NCI-H226): 13.9 µM (inactive) | GI50 (NCI-H23): 14.3 µM (inactive) | GI50 (NCI-H460): 15.8 µM (inactive) | GI50 (OVCAR-3): 14.9 µM (inactive) | GI50 (OVCAR-4): 14.2 µM (inactive) | GI50 (OVCAR-5): 16.4 µM (inactive) | GI50 (OVCAR-8): 18 µM (inactive) | GI50 (RPMI-8226): 27.7 µM (inactive) | GI50 (RXF 393): 13.9 µM (inactive) | GI50 (SF-268): 17.3 µM (inactive) | GI50 (SF-295): 15.8 µM (inactive) | GI50 (SF-539): 16.1 µM (inactive) | GI50 (SK-MEL-28): 14.9 µM (inactive) | GI50 (SK-MEL-2): 15.7 µM (inactive) | GI50 (SK-MEL-5): 14 µM (inactive) | GI50 (SK-OV-3): 23.1 µM (inactive) | GI50 (SN12C): 15.2 µM (inactive) | GI50 (SNB-19): 18.5 µM (inactive) | GI50 (SNB-75): 16.3 µM (inactive) | GI50 (SNB-78): 17.8 µM (inactive) | GI50 (SR): 7.08 µM (inactive) | GI50 (SW-620): 15.7 µM (inactive) | GI50 (TK-10): 18.6 µM (inactive) | GI50 (U-251): 14.7 µM (inactive) | GI50 (UACC-257): 14.6 µM (inactive) | GI50 (UACC-62): 15.8 µM (inactive) | GI50 (UO-31): 14.8 µM (inactive) | GI50 (XF498): 15.7 µM (inactive)

O=C1CC(c2c[nH]c3ccccc23)C(=O)N1 (stereo unspecified)
GI50 (786-0): > 100 µM (inactive) | GI50 (A498): > 100 µM (inactive) | GI50 (A549): > 100 µM (inactive) | GI50 (ACHN): > 100 µM (inactive) | GI50 (CAKI-1): > 100 µM (inactive) | GI50 (CCRF-CEM): > 100 µM (inactive) | GI50 (DLD-1): > 100 µM (inactive) | GI50 (DMS-273): > 100 µM (inactive) | GI50 (EKVX): > 100 µM (inactive) | GI50 (HCC 2998): > 100 µM (inactive) | GI50 (HCT-116): > 100 µM (inactive) | GI50 (HCT-15): > 100 µM | GI50 (HL-60): > 100 µM (inactive) | GI50 (HOP-62): > 100 µM (inactive) | GI50 (HT-29): > 100 µM (inactive) | GI50 (IGROV-1): > 100 µM (inactive) | GI50 (K562): > 100 µM (inactive) | GI50 (KM-20L2): > 100 µM (inactive) | GI50 (KM12): > 100 µM (inactive) | GI50 (LXFL 529): > 100 µM (inactive) | GI50 (M14): > 100 µM (inactive) | GI50 (M19-MEL): > 100 µM (inactive) | GI50 (MOLT-4): > 100 µM (inactive) | GI50 (Malme-3M): > 100 µM (inactive) | GI50 (NCI-H226): > 100 µM (inactive) | GI50 (NCI-H23): > 100 µM (inactive) | GI50 (NCI-H460): > 100 µM (inactive) | GI50 (OVCAR-3): > 100 µM (inactive) | GI50 (OVCAR-4): > 100 µM (inactive) | GI50 (OVCAR-5): > 100 µM (inactive) | GI50 (OVCAR-8): > 100 µM (inactive) | GI50 (RPMI-8226): > 100 µM (inactive) | GI50 (RXF 393): > 100 µM (inactive) | GI50 (RXF 631): > 100 µM (inactive) | GI50 (SF-295): > 100 µM (inactive) | GI50 (SF-539): > 100 µM (inactive) | GI50 (SK-MEL-28): > 100 µM (inactive) | GI50 (SK-MEL-2): > 100 µM (inactive) | GI50 (SK-MEL-5): > 100 µM (inactive) | GI50 (SK-OV-3): > 100 µM (inactive) | GI50 (SNB-75): > 100 µM (inactive) | GI50 (SNB-78): > 100 µM (inactive) | GI50 (SW-620): > 100 µM (inactive) | GI50 (TK-10): > 100 µM (inactive) | GI50 (U-251): > 100 µM (inactive) | GI50 (UACC-257): > 100 µM (inactive) | GI50 (UACC-62): > 100 µM (inactive) | GI50 (UO-31): > 100 µM (inactive) | GI50 (XF498): > 100 µM (inactive)
